Where two headings read alike, the source gives them in different places.
Biological target: T1, FADS1 (Mus musculus, UniProt Q920L1)
T1 construct: Liver from ^13C5-DGLA dosed DIO mice was collected for pharmacodynamic (PD) analysis; from tissue; host or cells: living DIO C57Bl/6 mice; 13C5-DGLA to 13C5-AA conversion read in liver (A4) or blood plasma (A5)
T1 sequence (Q920L1 1-447): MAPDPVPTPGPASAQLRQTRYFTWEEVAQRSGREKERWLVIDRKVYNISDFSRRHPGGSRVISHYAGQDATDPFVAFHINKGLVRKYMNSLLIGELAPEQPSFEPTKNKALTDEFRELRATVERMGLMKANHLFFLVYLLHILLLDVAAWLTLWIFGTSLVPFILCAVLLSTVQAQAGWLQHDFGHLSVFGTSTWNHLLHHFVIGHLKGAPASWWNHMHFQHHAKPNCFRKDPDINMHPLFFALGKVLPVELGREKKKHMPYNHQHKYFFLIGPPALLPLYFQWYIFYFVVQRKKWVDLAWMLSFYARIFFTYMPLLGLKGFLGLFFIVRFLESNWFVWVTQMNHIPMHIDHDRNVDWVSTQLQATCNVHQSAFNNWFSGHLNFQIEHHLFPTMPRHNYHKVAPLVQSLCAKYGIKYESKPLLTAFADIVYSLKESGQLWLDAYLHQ
Assay: In vivo FADS1 activity measurement using the liver (13C5-DGLA to 13C5-AA conversion)
Conditions: for IC50: liver of DIO mice, unbound plasma concentration, read-out: Free (unbound) in vivo IC50
Protocol: Mice were then dosed by intraperitoneal injection with a solution comprising of a mixture of 0.1 ml solution of ^13C5-DGLA (2 mM in 18.42 mM Na2CO3 buffer). Necropsy were performed at 30 minutes post ^13C5-DGLA dosing. Liver from ^13C5-DGLA dosed DIO mice was collected for pharmacodynamic (PD) analysis and EDTA plasma was collected for compound exposure determination. For PD analysis, 150 mg of frozen liver tissue were premixed with ALA-D14 as an internal standard. Liver samples were homogenized and extracted twice with chloroform/methanol (2:1) solution. The organic phases for the two extractions were pooled and evaporated to dryness under nitrogen gas. The liver extract was resuspended in 200 μl 2N NaOH and saponified at 65° C. for 1 hour. After cooling to room temperature, 100 μl of formic acid was added and the mixture was subjected to two consecutive extractions with a chloroform:methanol (2:1) solution. The pooled organic phases were evaporated to dryness under nitrogen gas and resuspended in a solution containing acetonitrile and methanol at a ratio of 1:1. The extracts were then analyzed by LC/MS/MS for the following analytes: ^13C5-DGLA, ^13C5-AA, with ALA-d14 as the internal standard. The sample (20 μl) was injected onto a Poroshell 120 EC-C18 3.0×50 mm, 1.9 μm id column (Agilent, Santa Clara, CA). The analyte peak areas were quantified using the Analyst software (SCIEX, Framingham, […]). The residual in vivo FADS1 activity was calculated by taking the percent of substrate to product conversion normalized to the vehicle group to determine the percent of control (POC) and the percent inhibition relative to control (vehicle).
To determine the degree of FADS1 inhibition, the in vivo FADS1 activity as the percent of conversion calculated using the following equation: […]
The data were then normalized to the vehicle group to determine the percent of inhibition relative to control (vehicle) by the following equation: […]
To calculate the in vivo potency, dose response graphs were generated by plotting the plasma concentration of the test compound determined from the PK analysis on the abscissa, against the percent of control (POC, relative to vehicle) of the FADS1 activity for each mouse. The data points were then fitted by using the log(inhibitor) vs response nonlinear regression algorithm using GraphPad Prism (version 8.4.3, San Diego CA) to calculate the in vivo IC50 (total).
Free (unbound) IC50 and IC90 values were calculated by first calculating the unbound compound concentration in the plasma by multiplying the plasma concentration of test compound with the fraction unbound (fu) value in mouse plasma determined in the plasma protein binding study. A dose response curve was used to determine the unbound IC50 and IC90 by plotting the unbound plasma concentration of the compound on the abscissa, against the percent of control (POC, relative to vehicle) of FADS1 activity for each mouse. The data points were then fitted with a log (inhibitor) versus response nonlinear regression algorithm using GraphPad Prism (version 8.4.3, San Diego, CA) to calculate the in vivo IC50 (Free).

[1] = DIO mice, single oral dose 10 mg/kg, 24 hours after dosing
[2] = DIO mice, single oral dose 30 mg/kg, 24 hours after dosing
[3] = mouse, DIO mice, single oral dose 10 mg/kg, 24 hours after dosing, read-out: Liver Avg % Inhibition
[4] = mouse, DIO mice, single oral dose 30 mg/kg, 24 hours after dosing, read-out: Liver Avg % Inhibition

| IC50 [nM] | inhibition at 10 mg/kg (mouse, DIO mice, 10 mg/kg daily oral, after 54 days of treatment, read-out: FADS1 activity inhibited (residual liver FADS1 activity)) [%] | inhibition at 30 mg/kg (mouse, DIO mice, 30 mg/kg daily oral, after 54 days of treatment, read-out: FADS1 activity inhibited (residual liver FADS1 activity)) [%] | Liver Avg % Conversion [1] [%] | Liver Avg % Conversion [2] [%] | Liver Avg % Conversion (DIO mice, single oral dose 50 mg/kg, 24 hours after dosing) [%] | inhibition at 10 mg/kg [3] [%] | inhibition at 30 mg/kg [4] [%] | inhibition at 50 mg/kg (mouse, DIO mice, single oral dose 50 mg/kg, 24 hours after dosing) [%] | Liver Avg % Conversion (DIO mice, single oral dose 3 mg/kg, 24 hours after dosing) [%] | inhibition at 3 mg/kg (mouse, DIO mice, single oral dose 3 mg/kg, 24 hours after dosing) [%] | Structure (SMILES) |
| --- | --- | --- | --- | --- | --- | --- | --- | --- | --- | --- | --- |
| 2 | 90 | 93.6 | – | – | – | – | – | – | – | – | COc1ccn2c(=O)c(-c3cnn(CC(F)(F)C(F)(F)F)c3)c(C(F)(F)F)nc2c1 [Compound A, 8-methoxy-3-(1-(2,2,3,3,3-pentafluoropropyl)-1H-pyrazol-4-yl)-2-(trifluoromethyl)-4H-pyrido[1,2-a]pyrimidin-4-one] |
| 4 | – | – | 2.2 | 1.5 | 1.4 | 97.4 | 98.2 | 98.3 | – | – | COc1ccn2c(=O)c(-c3cnn(CC(F)(F)C(F)(F)F)c3)c(C(F)(F)F)nc2n1 [Compound B] |
| 4 | – | – | 4.3 | 1.5 | – | 94.8 | 98.2 | – | 14.2 | 83 | N#Cc1ccn2c(=O)c(-c3cnn(CC(F)(F)C(F)(F)F)c3)c(C(F)(F)F)nc2c1 [Compound C] |

Reference: patent publication US20260183297A1, “SELECTION OF PATIENTS FOR THE TREATMENT OF FADS1-MEDIATED DISEASES OR DISORDERS USING FADS-1 INHIBITORS” (AMGEN INC., priority 2022, published 2026)
